Laboratory results taken from the supplement of paper PMC8617591.

Assays:
[1] = tested on: Mycobacterium tuberculosis Erdman (autoluminescent); assay: total FIC50 (Loewe) at 50% inhibition, three-drug combination (log2); higher = more antagonistic
Description: (§1)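 DiaMOND equipotent three-drug combination dose responses (10 doses, 1.5- or 2-fold spacing, centred on IC90) against autoluminescent M. tuberculosis Erdman in 8 in vitro models. Read-out is OD600, or luminescence for the intracellular and dormancy models, normalised to untreated wells. Hill-fit Einf, AUC25 and GRinf are potency metrics; FIC50 and FIC90 are total Loewe fractional inhibitory concentrations as log2 (negative = synergy).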

[2] = tested on: Mycobacterium tuberculosis Erdman (autoluminescent); assay: total FIC90 (Loewe) at 90% inhibition, three-drug combination (log2); higher = more antagonistic
Description: as §1

[3] = tested on: Mycobacterium tuberculosis Erdman (autoluminescent); assay: Einf, fitted maximum growth inhibition of three-drug combination (fraction); higher = stronger maximal inhibition
Description: as §1

[4] = tested on: Mycobacterium tuberculosis Erdman (autoluminescent); assay: AUC25, normalised area under dose response up to IC25 (three-drug combination) (fraction (0-1)); higher = more potent at low dose
Description: as §1

[5] = tested on: Mycobacterium tuberculosis Erdman (autoluminescent); assay: GRinf, maximum normalised growth rate inhibition (three-drug combination) (unitless (-1 to 1)); higher = less effect (negative = killing)
Description: as §1

CC(C)/N=c1\cc2n(-c3ccc(Cl)cc3)c3ccccc3nc-2cc1Nc1ccc(Cl)cc1 [clofazimine] + CO[C@H]1/C=C/O[C@@]2(C)Oc3c(C)c(O)c4c(O)c(c(/C=N/N5CCN(C6CCCC6)CC5)c(O)c4c3C2=O)NC(=O)/C(C)=C\C=C\[C@H](C)[C@H](O)[C@@H](C)[C@@H](O)[C@@H](C)[C@H](OC(C)=O)[C@@H]1C [rifapentine] + CO[C@H]1/C=C/O[C@@]2(C)Oc3c(C)c(O)c4c(O)c(c(/C=N/N5CCN(C)CC5)c(O)c4c3C2=O)NC(=O)/C(C)=C\C=C\[C@H](C)[C@H](O)[C@@H](C)[C@@H](O)[C@@H](C)[C@H](OC(C)=O)[C@@H]1C [rifampicin]
Conditions | AUC25, [4] | Einf, [3] | GRinf, [5] | total FIC50, [1] | total FIC90, [2]
in vitro model: acidic pH 5.7, time point: constant (~7 days, model-specific) | 0.0846 | 0.855 | -0.0603 | 0.102 | –
in vitro model: acidic pH 5.7, time point: terminal (~4-5 doublings, model-specific) | 0.076 | 0.975 | -0.1 | 0.133 | -0.159
in vitro model: intracellular J774, time point: constant = terminal | – | 0.956 | -0.293 | – | 0.0463

Conditions | AUC25, [4] | Einf, [3] | GRinf, [5] | total FIC50, [1] | total FIC90, [2]
in vitro model: butyrate, time point: constant (~7 days, model-specific) | 0.115 | 0.935 | -0.0887 | 0.282 | 0.128
in vitro model: butyrate, time point: terminal (~4-5 doublings, model-specific) | 0.0924 | 0.967 | -0.0699 | 0.19 | 0.285
in vitro model: cholesterol 0.05 mM, time point: constant (~7 days, model-specific) | 0.13 | 0.619 | -0.094 | 0.554 | –
in vitro model: cholesterol 0.05 mM, time point: terminal (~4-5 doublings, model-specific) | 0.098 | 0.865 | 0.0942 | 1.05 | 0.206
in vitro model: cholesterol-high 0.2 mM, time point: constant (~7 days, model-specific) | 0.105 | 0.887 | -0.333 | 0.692 | –
in vitro model: cholesterol-high 0.2 mM, time point: terminal (~4-5 doublings, model-specific) | 0.0914 | 0.999 | -0.983 | 0.952 | 0.73
in vitro model: dormancy (butyrate + nitrate, low O2), time point: constant (~7 days, model-specific) | 0.0771 | 0.965 | 0.0628 | 0.158 | -0.937
in vitro model: dormancy (butyrate + nitrate, low O2), time point: terminal (~4-5 doublings, model-specific) | 0.067 | 0.994 | -0.464 | -0.183 | 0.154
in vitro model: standard 7H9 glycerol, time point: constant = terminal | 0.0923 | 0.907 | 0.0923 | 0.00896 | 1.54
in vitro model: valerate, time point: constant (~7 days, model-specific) | 0.0792 | 0.861 | 0.00522 | 0.944 | –
in vitro model: valerate, time point: terminal (~4-5 doublings, model-specific) | 0.0548 | 0.925 | 0.043 | 0.559 | 0.577

CC(C)/N=c1\cc2n(-c3ccc(Cl)cc3)c3ccccc3nc-2cc1Nc1ccc(Cl)cc1 [clofazimine] + COc1c(N2C[C@@H]3CCCN[C@@H]3C2)c(F)cc2c(=O)c(C(=O)O)cn(C3CC3)c12 [moxifloxacin] + CO[C@H]1/C=C/O[C@@]2(C)Oc3c(C)c(O)c4c(O)c(c(/C=N/N5CCN(C6CCCC6)CC5)c(O)c4c3C2=O)NC(=O)/C(C)=C\C=C\[C@H](C)[C@H](O)[C@@H](C)[C@@H](O)[C@@H](C)[C@H](OC(C)=O)[C@@H]1C [rifapentine]
Conditions | AUC25, [4] | Einf, [3] | GRinf, [5] | total FIC50, [1] | total FIC90, [2]
in vitro model: acidic pH 5.7, time point: constant (~7 days, model-specific) | 0.0597 | 0.791 | 0.0664 | 0.757 | –
in vitro model: acidic pH 5.7, time point: terminal (~4-5 doublings, model-specific) | 0.0785 | 0.994 | -0.157 | 0.662 | 0.776
in vitro model: intracellular J774, time point: constant = terminal | – | 0.896 | -0.177 | – | 0.705

Conditions | AUC25, [4] | Einf, [3] | GRinf, [5] | total FIC50, [1] | total FIC90, [2]
in vitro model: butyrate, time point: constant (~7 days, model-specific) | 0.109 | 0.951 | -0.179 | 0.683 | 0.815
in vitro model: butyrate, time point: terminal (~4-5 doublings, model-specific) | 0.0865 | 0.976 | -0.126 | 0.677 | 0.878
in vitro model: cholesterol 0.05 mM, time point: constant (~7 days, model-specific) | 0.117 | 0.651 | -0.0835 | 0.506 | –
in vitro model: cholesterol 0.05 mM, time point: terminal (~4-5 doublings, model-specific) | 0.106 | 0.826 | 0.0322 | 1.24 | 0.476
in vitro model: cholesterol-high 0.2 mM, time point: constant (~7 days, model-specific) | 0.122 | 0.933 | -0.651 | 0.36 | 0.939
in vitro model: cholesterol-high 0.2 mM, time point: terminal (~4-5 doublings, model-specific) | 0.0999 | 1 | -0.936 | 0.593 | 0.687
in vitro model: dormancy (butyrate + nitrate, low O2), time point: constant (~7 days, model-specific) | 0.0884 | 0.916 | 0.189 | 0.695 | 0.16
in vitro model: dormancy (butyrate + nitrate, low O2), time point: terminal (~4-5 doublings, model-specific) | 0.0815 | 0.985 | -0.35 | 0.807 | 1.55
in vitro model: standard 7H9 glycerol, time point: constant = terminal | 0.11 | 0.961 | -0.153 | 0.103 | 0.69
in vitro model: valerate, time point: constant (~7 days, model-specific) | 0.121 | 0.922 | -0.0961 | 0.866 | –
in vitro model: valerate, time point: terminal (~4-5 doublings, model-specific) | 0.0636 | 0.937 | 0.0037 | 0.401 | 0.131
